According to US8334261B2, “Osteopenia animal model” (Oriental Yeast Co., Ltd., priority 2006, dated 2012):

Legend:
Type in all cases: in vivo, mouse
[1] = system: GST-RANKL-administered 7-week-old female C57BL/6N mice; test: Evaluation of a bone mass increase with low-dose PTH in GST-RANKL mice; settings: PTH 80 μg/kg; 1.0 mm
[2] = system: GST-RANKL-administered 7-week-old female C57BL/6N mice; test: as above
Experimental: GST-RANKL was intraperitoneally administered 2 times to groups of 7-week-old female C57BL/6N mice at 1 mg/kg every 24 hours. PTH was subcutaneously administered thereto at 40 or 80 μg/kg from 24 hours after the 2nd administration every 24 hours for 10 consecutive days. In addition, PBS was administered to a group serving as the control group for the GST-RANKL and PTH administration groups for comparison. The serum and femur were collected from each mouse 24 hours after the end of administration for 10 days.
The serum collected from each mouse was subjected to measurement of serum bone resorption markers (Ca and TRAP-5b) and an osteogenesis marker (ALP). Each femur was subjected to measurement of the total bone density, the cortical bone density, the cortical bone thickness, the cortical bone mineral content, and the cortical bone density in the diaphysis with pQCT at points 0.6, 0.8, and 1.0 mm […] the distal growth plate on the proximal side. In addition, image analysis was carried out with micro CT.

[3] = system: 7-week-old female C57BL/6N mice; test: Evaluation of a bone mass increase with PTH (GST-RANKL, ovariectomy)
Experimental: GST-RANKL was administered twice to groups of 7-week-old female C57BL/6N mice at 1 mg/kg every 24 hours. Ovariectomy was performed 24 hours after the 2nd administration. In addition, parathyroid hormone (PTH) was subcutaneously administered thereto at 160 μg/kg from 24 hours after the ovariectomy for 10 consecutive days. Further, a group obtained by PBS administration and sham operation (Sham) was designated as a control group for comparison. The serum markers and the femur bone density were measured.

With parathyroid hormone [PTH] the “cortical bone density increase in GST-RANKL administration group” value [1] was 3%, the “cortical bone density in the diaphysis, increase in GST-RANKL group” value ([2]; PTH 40 μg/kg) was 3% and the “serum ALP concentration in GST-RANKL group” value ([2]; PTH 40 μg/kg) was “tended to decrease”. For the same substance, the “cancellous bone density increase in GST-RANKL group vs PBS” value ([2]; PTH 40 μg/kg, 0.6 mm) was 25%, the “cortical bone mineral content increase in GST-RANKL group vs PBS” value ([2]; PTH 40 μg/kg, 0.6 mm) was 80% and the “cortical bone thickness increase in GST-RANKL group vs PBS” value ([2]; PTH 40 μg/kg, 0.6 mm) was 86%. For the same substance, the “total bone density increase in GST-RANKL group vs PBS” value (from here on “total bone density increase … vs PBS”) ([2]; PTH 40 μg/kg, 0.6 mm) was 14%, the “cancellous bone density increase in GST-RANKL group vs PBS” value ([2]; PTH 40 μg/kg, 0.8 mm) was 28% and the “cortical bone density increase in GST-RANKL group vs PBS” value ([2]; PTH 40 μg/kg, 0.8 mm) was 4%. The “cortical bone mineral content increase in GST-RANKL group vs PBS” value ([2]; PTH 40 μg/kg, 0.8 mm) was 123%, the “cortical bone thickness increase in GST-RANKL group vs PBS” value ([2]; PTH 40 μg/kg, 0.8 mm) was 127% and the “total bone density increase … vs PBS” value ([2]; PTH 40 μg/kg, 0.8 mm) was 17%. The “cortical bone density increase in GST-RANKL group vs PBS” value ([2]; PTH 40 μg/kg, 1.0 mm) was 5%, the “cortical bone mineral content increase in GST-RANKL group vs PBS” value ([2]; PTH 40 μg/kg, 1.0 mm) was 100% and the “cortical bone thickness increase in GST-RANKL group vs PBS” value ([2]; PTH 40 μg/kg, 1.0 mm) was 98%. For the same substance, the “total bone density increase … vs PBS” value ([2]; PTH 40 μg/kg, 1.0 mm) was 19%, the “cortical bone density in the diaphysis, increase in GST-RANKL group” value ([2]; PTH 80 μg/kg) was 3% and the “cancellous bone density increase in GST-RANKL group” value ([2]; PTH 80 μg/kg, 0.6 mm) was 20%. The “cortical bone mineral content increase in GST-RANKL group” value ([2]; PTH 80 μg/kg, 0.6 mm) was 46%, the “cortical bone thickness increase in GST-RANKL group” value ([2]; PTH 80 μg/kg, 0.6 mm) was 50% and the “total bone density increase in GST-RANKL group” value ([2]; PTH 80 μg/kg, 0.6 mm) was 10%. For the same substance, the “cortical bone mineral content increase in GST-RANKL group” value ([2]; PTH 80 μg/kg, 0.8 mm) was 83%, the “cortical bone thickness increase in GST-RANKL group” value ([2]; PTH 80 μg/kg, 0.8 mm) was 89% and the “total bone density increase in GST-RANKL group” value ([2]; PTH 80 μg/kg, 0.8 mm) was 13%. The “cortical bone mineral content increase in GST-RANKL group” value ([2]; PTH 80 μg/kg, 1.0 mm) was 77%, the “cortical bone thickness increase in GST-RANKL group” value ([2]; PTH 80 μg/kg, 1.0 mm) was 79% and the “total bone density increase in GST-RANKL group” value ([2]; PTH 80 μg/kg, 1.0 mm) was 13%. For the same substance, the “serum ALP concentration in GST-RANKL group” value ([2]; PTH 80 μg/kg, p<0.01) was “significantly decreased”, the “serum Ca concentration in GST-RANKL group” value ([2]; PTH 80 μg/kg, p<0.05) was “slightly significant decrease” and the “serum TRAP-5b concentration” value ([2]; PTH 40 or 80 μg/kg s.c. 10 days) was “no significant changes”. The bone density decrease ([3]; PTH 160 μg/kg administered to the GST-RANKL+Sham group, p<0.05) was “significantly suppressed”, the femur bone density ([3]; PTH 160 μg/kg administered to the PBS+Sham group) was “significantly increased exclusively at the 1.0-mm point” and the “femur bone density increase” value ([3]; PTH 160 μg/kg in the OVX group) was “no significant difference”. The “serum TRAP-5b concentration, fold as high as the relevant group not treated with PTH” value ([3]; every PTH administration group, 160 μg/kg s.c. 10 consecutive days) was “approximately 1.5 fold”.
